# Earlier results, collected in patent publication US20080253970A1, “Stable Pharmaceutical Drug Products” (Schering Corporation, priority 2007, published 2008).
row,solubility in ethanol,Structure (SMILES)
1,partially soluble in ethanol,"C[C@@H]1C[C@H]2[C@@H]3CCC4=CC(=O)C=C[C@]4(C)[C@@]3(Cl)[C@@H](O)C[C@]2(C)[C@@]1(OC(=O)c1ccco1)C(=O)CCl [mometasone furoate, 9,21-Dichloro-11(beta), 17-dihydroxy-16(alpha)-methylpregna-1,4-diene-3,20-dione17-(2 Furoate)]"
2,partially soluble in ethanol,CC1(C)O[C@@H]2C[C@H]3[C@@H]4C[C@H](F)C5=CC(=O)C=C[C@]5(C)[C@H]4[C@@H](O)C[C@]3(C)[C@]2(C(=O)CO)O1 [flunisolide]
3,partially soluble in ethanol,C[N+]1(C)[C@@H]2C[C@@H](OC(=O)C(O)(c3cccs3)c3cccs3)C[C@H]1[C@@H]1O[C@@H]12 [tiotropium]
